Data on 1 molecule can be found in patent publication US8614246B2, “Indole derivatives for treating neurodegenerative diseases” (Centre National de la Recherche Scientifique (CNRS), priority 2009, dated 2013).

In assay [1] the test system is reactive oxygen species (ROS) in neurones of ventral mesencephalon cultures. The assay is described as follows: Cellular test with dihydrorhodamine 123 (DHR-123). It counts as cell-based, rat. The conditions noted are these: compounds 10 nM for eight days, 50 μM DHR-123 30 minutes; control = 100; Trolox at 10 μM per FIG. 1. Here is the method:
Dihydrorhodamine 123 or DHR123 is used as an indicator of reactive oxygen species (ROS). It is uncharged and not fluorescent and passes passively through the cellular membrane before being oxidised in contact with free radicals, into rhodamine 123 emitting green fluorescence.
The quantity of intracellular ROS is reduced when the cells are treated by an anti-oxidant. This reduction results in a quantifiable decay in emitted fluorescence in the presence of DHR123.
In order to conclude the role of the anti-oxidant capacity of compounds according to the invention in the observed neuroprotectrive activity, the cultures were placed strictly under the same conditions as for the neuroprotection/neuritogenesis test. Thus, the cultures were kept for eight days in the presence of a concentration of 10 nM of each of the tested tryptaminic derivatives. On the 8th day in vitro (DIV 8), 50 μM of DHR-123 (Sigma) was added and the cells were incubated for 30 minutes at 37° C. They were then washed three times, treated once again by compounds according to the invention and placed in a medium without any phenol red. Living fluorescent neurones that were immediately photographed can be observed, the fluorescence density per neurone being quantified under an inverted fluorescence microscope by an image analysis software.

The nature of assay [2]: Test with ABTS (anti-oxidant capacity, hydroxyl radicals generated by Fenton's reaction). It counts as biochemical. The conditions noted are these: 30 minutes at ambient temperature, range 10 nM to 1 mM, read-out: IC50 ± SEM (concentration at which 50% of hydroxyl radicals have been reduced) (converted). The source says: ABTS or 2,2′-azino-bis-(3-ethylbenzthiazoline-6-sulfonic) acid is a coloured indicator of the presence of hydroxyl radicals in solution. The attack of a hydroxyl radical on ABTS generates the formation of an ATBS^+. cation radical (Equation 1). This coloured entity makes the absorbance (Abs) of the solution equal to 450 nm. ABTS+HO. ? ABTS^+. +HO^− Equation 1
During the test, hydroxyl radicals are generated by Fenton's reaction in the presence of iron and hydrogen peroxide (Equation 2) H2O2+Fe^2+ ? HO. +HO^−+Fe^3+ Equation 2
When a radical trap or antioxidant is present in solution, competition with ABTS is set up for reduction of hydroxyl radicals, which reduces the absorbance (Abs) at 450 nm.
The percentage of hydroxyl radicals converted into hydroxyl ions (% conversion) by the compound of interest may be calculated using Formula 1: […]
The anti-oxidant capacity of a compound may then be expressed in the form of IC50 that reflects the concentration at which 50% of hydroxyl radicals have been reduced by the tested compound.
Thus, the compounds to be tested and Trolox® were solubilised in ethanol so as to obtain solutions at 1 mM. We used cascade dilutions to obtain a concentration range varying from 1 mM to 10 nM. 90 μL of a 1:1 water-ethanol mixture was then added onto an ELISA 96-well plate, followed by 15 μL of an aqueous solution of ABTS at 1 mM, 15 μL of an aqueous solution of Fe2SO4 at 0.5 mM, 15 μL of each compound to be tested at different concentrations, and then 15 μl of an aqueous solution of hydrogen peroxide at 100 mM. The mixtures thus obtained were stirred at ambient temperature sheltered from air for 30 minutes, and the value of the absorbance at […] was then measured. The capacity of each compound to reduce hydroxyl radicals is determined by the reduction in absorbance at 450 nm, the control solution being composed of pure ethanol. Therefore, the ABTS test was made in comparison with Trolox®. The same ranges from 10 nm to 1 mM of indoles 1a, 1c, 1g, 1i, 2a, 4c, 2g, 2h and 2i were tested.

Turning to `CCCCCCCCCCCCCCCCNCCc1c[nH]c2ccccc12` [Compound 2c, N-(2-(1H-indol-3-yl)ethyl)hexadecan-1-amine], the “IF/neurone (%) (fluorescence intensity per neurone)” value in assay [1] worked out at 47.8 ± 4.7 %. Further, the IC50 in assay [2] was 620 µM.
